We go through one molecule from PMC6522524 (Nature Communications, 2019).

Where “and” joins values, the source holds several entries; their conditions need not be identical. Equal entries are not always repeated.

For data set [1], the target named is HBV core protein Y118F mutant in Huh-7 cells (Hepatitis B virus genotype C, UniProt P0C6H6, Y118F). Description: Intracellular HBV capsid assembly, Huh-7 cells transfected with pCDNA3-Core Y118F. The data set is classed as cell-based.
A short description of another data set: in vitro. The data set is classed as cell-based, human. Particulars: human, Cell viability(%). The protocol:
Supplementary Fig. 11. Effect of FBS serum iron level on Huh-7, HepG2, and HepG2.2.15 cell
a Cells were maintained in medium supplemented with 2% FBS or 10% FBS for 1 day and treated with
After 6 days, cytotoxicity was measured. b Cells were treated with
the ± SD. *p < 0.05 by unpaired two-tailed Student’s t-test.

The test system of data set [2] is HBV rcDNA in HepG2-NTCP cells. Description: In vitro HBV infection model, HepG2-NTCP cells: intracellular HBV rcDNA.
Experimental: To isolate the secreted HBV DNA, culture media were collected and centrifuged at 15,000 × g to remove debris. The medium was diluted 1:1 with phosphate-buffered saline (PBS), and 1 M NaOH solution was added to a final concentration of 0.1 M. The mixture was incubated at 37 °C for 1 h. Protein was denatured by adding 2 M Tris-HCl (pH 7.5) solution to a final concentration of 0.2 M and incubating the mixture at 98 °C for 5 min. The protein precipitate was removed by centrifugation at 15,000 × g, and the supernatant was subjected to PCR with an HBV DNA primer and probe set (Supplementary Table 1). […] To isolate intracellular HBV DNA, the cells were lysed on ice with lysis buffer (50 mM Tris-HCl, pH 7.5, 1 mM EDTA, 1% NP40) for 10 min. After removing cell debris and nuclei by centrifugation at 15,000 × g, the supernatant was treated with micrococcal nuclease (0.25 U per μL, M0247, New England Biolabs) at 37 °C for 1 h. The micrococcal nuclease was then inactivated by adding EGTA to a final concentration of 10 mM. Thereafter intracellular HBV DNA was extracted with a G-spin^TM total kit (17046, Intron). The isolated intracellular HBV DNA was subjected to PCR with an HBV DNA primer and probe set (Supplementary Table 1). cccDNA was isolated by the Hirt extraction method[54]. […]
In data set [3] the test system is HBV replicative plasmid pAAV-HBV1.2× in C57BL/6 mice. The experiment in a line: Hydrodynamic injection mouse model (pAAV-HBV1.2×, C57BL/6 mice). The class given is in vivo.
Where [4] appears, read: 5 mg per kg oral daily, by day 5.

Chain of HBV core protein Y118F mutant in Huh-7 cells (P0C6H6 whole entry Y118F, looked up): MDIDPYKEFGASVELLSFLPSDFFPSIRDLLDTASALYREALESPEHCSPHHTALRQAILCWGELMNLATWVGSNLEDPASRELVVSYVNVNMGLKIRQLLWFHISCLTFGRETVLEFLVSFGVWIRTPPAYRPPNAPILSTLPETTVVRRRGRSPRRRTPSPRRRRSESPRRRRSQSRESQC

For `Cc1cc(C2CCCCC2)n(O)c(=O)c1` [Ciclopirox, 6-cyclohexyl-1-hydroxy-4-methyl-2(1 H)-pyridone], the “reduction in sensitivity of Y118F compared with the wild-type” value in data set [1] is “approximately 4 fold”. For the same molecule, in “in vitro” (AVERAGE), the viability – broadly, a read-out of living cells in per cent, often relative to untreated cells – at 0.1 µM was 99.9%; the viability at 0.2 µM amounted to 99.8%; the viability at 0.5 µM worked out at 99.7%; the viability at 1 µM turned out to be 99.7%. In the data set “in vitro” (AVERAGE), this molecule returned a viability at 2 µM of 98%, a viability at 5 µM of 96.5% and a viability at 10 µM of 94.6%. In the data set “in vitro” (individual samples), the viability at 0.1 µM is 98.5%, the viability at 0.2 µM was found to be 98.3%, the viability at 0.5 µM was determined as 98.2% and the viability at 1 µM was 96.6%. For the same molecule, in “in vitro” (individual samples), the viability at 2 µM turned out to be 95.4% and the viability at 5 µM is 91.5%. In data set [2], the “intracellular relaxed circular DNA levels” value is reported as “dropped markedly”. Further, in data set [3] (setting [4]), the “HBV core protein levels in the liver” value is recorded as “reduced HBV core protein levels in the liver” and the “serum HBV DNA levels” value is listed as “significantly lowered serum HBV DNA levels”. Moreover, the “HBsAg, AVERAGE” value in data set [3] (mouse, in vivo) was 278.443 ng/mL and 288.165 ng/mL and 304.224 ng/mL and 310.116 ng/mL.
